Measured values: ChEMBL document CHEMBL1201862, “PubChem BioAssay data set” (2004)
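Protocol summary: plate cells (96-well), add compound at 5 concentrations, incubate 48 h, interpolate endpoints linearly. GI50 = concentration required for 50% inhibition of growth.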 Active and inactive are the calls of the source. Cut-off read from the data, not from the text of the source: active = GI50 up to about 1.1 µM and inactive = higher.

Key:
Experiment in all cases: NCI-60 cell line screen, 48 h
[1] = test system: M14
[2] = test system: 786-0
[3] = test system: SN12C
[4] = test system: CCRF-CEM
[5] = test system: NCI-H23
[6] = test system: NCI/ADR-RES
[7] = test system: SK-MEL-2
[8] = test system: SK-MEL-5
[9] = test system: SNB-19
[10] = test system: KM12
[11] = test system: ACHN
[12] = test system: UACC-62
[13] = test system: SF-295
[14] = test system: OVCAR-5
[15] = test system: U-251
[16] = test system: HCC 2998
[17] = test system: SNB-75
[18] = test system: TK-10

Measured: GI50

COc1ccc(C2=CC(c3ccccc3)n3nnnc3N2)cc1 (stereo not given)
inactive: [1] > 100 µM | [2] > 100 µM | [3] > 100 µM | [4] > 100 µM | [5] > 100 µM | [6] > 100 µM | [7] > 100 µM | [8] > 100 µM | [9] > 100 µM | [10] > 100 µM | [11] > 100 µM | [12] > 100 µM | [13] 52.2 µM | [14] > 100 µM | [15] 56 µM

O=P1(Oc2ccc(Cl)cc2Cl)Oc2ccc3ccccc3c2-c2c(ccc3ccccc23)O1
inactive: [3] 30.8 µM | [16] 24.9 µM | [4] 28 µM | [5] 29.8 µM | [6] > 68.5 µM | [7] 18.7 µM | [17] 31.5 µM | [8] 49.5 µM | [9] 29.5 µM | [10] 32.9 µM | [12] 26.7 µM | [13] 34.8 µM | [14] 59.7 µM | [15] 21.1 µM

CCOC(OCC)(OCC)C(Br)CC (stereo not given)
inactive: [1] > 100 µM | [2] 16.4 µM | [3] 64.9 µM | [16] > 100 µM | [18] > 100 µM | [4] 28.2 µM | [5] > 100 µM | [7] > 100 µM | [17] > 100 µM | [8] > 100 µM | [9] > 100 µM | [10] > 100 µM | [11] > 100 µM | [12] > 100 µM | [13] > 100 µM | [14] > 100 µM | [15] > 100 µM

C/C=C/CP(=O)(c1ccccc1)c1ccccc1
inactive: [1] > 100 µM | [2] > 100 µM | [3] > 100 µM | [16] > 100 µM | [18] > 100 µM | [4] > 100 µM | [5] > 100 µM | [7] > 100 µM | [17] > 100 µM | [8] > 100 µM | [9] > 100 µM | [10] > 100 µM | [11] > 100 µM | [12] > 100 µM | [13] > 100 µM | [14] > 100 µM | [15] > 100 µM

O=c1c2ccccc2sc2nc(O)nn12
inactive: [1] > 100 µM | [2] > 100 µM | [3] > 100 µM | [16] > 100 µM | [18] > 100 µM | [4] > 100 µM | [5] > 100 µM | [7] > 100 µM | [17] > 100 µM | [8] > 100 µM | [9] > 100 µM | [10] > 100 µM | [11] > 100 µM | [12] > 100 µM | [13] > 100 µM | [14] > 100 µM | [15] > 100 µM
